In patent publication US7329422B2, “Pharmaceutical compositions” (priority 2002, dated 2008):

Experiments:
[1] = system: human liver cancer cells; assay: purified B-2 compound on human liver cancer cells in tissue culture; type: cell-based; details: visually evident
From the text: (§1) Test were made of the purified B-2 compound on human breast cancer cells grown in tissue culture.
The experiment was repeated using human liver cancer cells.

[2] = system: human breast cancer cells; assay: purified B-2 compound on human breast cancer cells grown in tissue culture; type: cell-based
From the text: as §1

## Oc1cc(O)c2c(c1)O[C@H](c1ccc(O)c(O)c1)[C@H](O)[C@H]2c1c(O)cc(O)c2c1O[C@H](c1ccc(O)c(O)c1)[C@H](O)C2 [purified B-2 compound, procyanidin B-2]
[1]
  number of cancer cells: substantially reduced
[2]
  number of cells in treated samples: marked reduction
